The target of data set [1] is T1, human collagenase-1 catalytic domain (Homo sapiens, UniProt P03956).
T1 construct: the collagenase-1 catalytic domain was released by treatment with 1 mM of aminophenylmercuric acetate (APMA); ubiquitin (cleaved yes); made in house; host or cells: E. coli
T1 sequence (P03956 100-269 limits assumed): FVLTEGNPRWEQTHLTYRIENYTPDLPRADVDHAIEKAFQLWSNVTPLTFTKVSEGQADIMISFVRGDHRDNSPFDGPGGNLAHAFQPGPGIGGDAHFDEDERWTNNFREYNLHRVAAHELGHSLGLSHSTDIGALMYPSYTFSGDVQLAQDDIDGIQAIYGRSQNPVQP
Put plainly: MMP inhibition in vitro, human collagenase-1. As to conditions: MCA-Pro-Leu-Gly-Leu-DPA-Ala-Arg-NH2 hydrolysis at 37° C.; read-out: Collagenase-I IC50. The data set is classed as biochemical. On the procedure: The catalytic domain of human collagenase-1 was expressed as a fusion protein with ubiquitin in E. Coli as described in Gehring, E. R. et al., J. Biol. Chem., 270, 22507, (1995). After purification of the fusion protein, the collagenase-1 catalytic domain was released by treatment with 1 mM of aminophenylmercuric acetate (APMA) for 1 hour at 37° C. and then purified by zinc chelate chromatography.
(§1) The matrix metalloprotease inhibitory activity of compounds of this invention in vitro was determined based on the hydrolysis of MCA-Pro-Leu-Gly-Leu-DPA-Ala-Arg-NH2 (Bachem, Inc.) at 37° C. as described in Knight, C. G., et al., FEBS Lett., 296, 263-266 (1992).
(§2) The matrix metalloprotease enzyme was diluted with assay buffer (50 mM Tricine pH 7.5, 200 mM NaCl, 10 mM CaCl2, and 0.005% Brij-35) containing 10 μmole of above substrate dissolved in DMSO. Compounds of the invention dissolved in DMSO or only DMSO (control samples) were added such that the final DMSO concentration in all assays was 2.5%. The fluorescence changes were monitored with a Perkin-Elmer LS-50B flourimeter using an excitation wavelength of 328 nm and an emission wavelength of 393 nm.

Data set [2] deals with T2, human collagenase-3 catalytic domain (Homo sapiens, UniProt P45452).
T2 construct: After purification, the catalytic domain was released by treatment with 1 mM APMA for 1 hour at 37° C; ubiquitin (N, cleaved yes); made in house; host or cells: E. coli
Put plainly: MMP inhibition in vitro, human collagenase-3. The data set is classed as biochemical. As to conditions: MCA-Pro-Leu-Gly-Leu-DPA-Ala-Arg-NH2 hydrolysis at 37° C.; read-out: Collagenase-III IC50. As to the method: The propeptide and catalytic domain portion of human collagcenase-3 was expressed in E. Coli as an N-terminal fusion protein with ubiquitin. After purification, the catalytic domain was released by treatment with 1 mM APMA for 1 hour at 37° C., and then purified by zinc chelate chromatography.
as §1, §2

Data set [3] relates to collagen matrix of bovine cartilage explants. Put plainly: Degradation of cartilage plug in vitro (IL-1 stimulated cartilage explant, hydroxyproline content). The data set is classed as cell-based. As to conditions: IL-1-α stimulated bovine cartilage explants, 21 days, hydroxyproline content relative to control; compounds at 10 to 300 nm. As to the method:
The ability of the compounds of this invention to inhibit the degradation of the collagen matrix (as judged by release of hydroxyproline) was determined by the cartilage plug degradation assay in vitro by following a slight modification of the method described in Spirito, S., Doughty, E., et al., “Metalloproteinase inhibitors halt collagen breakdown in IL-1 induced bovine nasal cartilage cultures” Inflamm. Res., 44, Supp. 2: S131—S132, (1995).
Cartilage explants prepared from freshly sacrificed bovine knee joints were added to the culture medium (Dubelco's modified eagle medium, Gibco # 21063-001, Gibco BRL Products, Gaithersburg, Md.), without phenol red, but with HEPES, and L-glutamine and fungizone 2.5 μg/ml, gentamicin 50 μg/ml, penicillin 100 U/ml, and streptomycin 100 μg/ml). The cultures were stimulated with IL-1-α at a final concentration of 20 ng/ml. Compounds of Formula (I), were added at concentrations between 10 and 300 nm in DMSO. The control samples contained only L-1-α. The cultures were incubated at 37° C. in an atmosphere of air with 6% CO2 for 21 days during which time the medium was changed twice/week. The cartilage plugs were removed, hydrolyzed and the hydroxyproline content was determined. The MMP inhibitory activity of test materials is the measure of the hydroxyproline content in the test group relative to the vehicle treated group (control group).

The subject of data set [4] is bovine nasal cartilage plugs implanted subcutaneously in female Lewis rats. Put plainly: Cartilage plug degradation in vivo (cartilage plug implant assay, hydroxyproline content). As to conditions: 8 or 9 days, hydroxyproline content relative to vehicle group. Also noted: species or system rat.
The test system of data set [5] is TNF-α. Put plainly: Inhibition of LPS induced TNF-α production in mice in vivo assay. As to conditions: female Balb/c mice, compound subcutaneously 1 h before LPS i.p., serum TNF-α 1.5 h after LPS. As to the method: The activity of compounds of this invention in inhibiting the TNF-α release was determined using a minor modification of the methods described in Zanetti, G.; Heumann, D., et. al., “Cytokine production after intravenous or peritoneal Gram-negative bacterial challenge in mice” J. Immunol., 148, 1890, (1992) and Sekut, L., Menius, J. A., et. al., “Evaluation if the significance of related levels of systemic and localized tumor necrosis factor in different animal models of inflammation” J. Lab. Clin. Med., 124, 813, (1994).
Female Balb/c mice were anesthetized and injected subcutaneously with the test compounds dissolved in CMC vehicle or hydroxypropylmethyl cellulose based vehicle. Control animals received only the vehicle. After 1 h, LPS (50 μg/mouse, Sigma #13129, Sigma Chemical Co., St. Louis, Mo.) was injected intraperitoneally. After 1.5 h, blood was collected from the retro-orbital plexus region of the animals in a microtainer serum separator tube (Becton Dickinson, Cat. No. #5960, Becton Dickinson & Co., Franklin Lakes, N.J.). The sera was separated and the amount of TNF-α was determined using the EM-TNFA® kit (Endogen, Woburn, Mass.) by following the manufacturer's protocol.

Data set [6] deals with Human Monomac 6 cells. The experiment in a line: Inhibition of TNF release in vitro assay (LPS/PMA stimulated). In kind it is cell-based. As to conditions: Conc. 2 μM, LPS/PMA stimulated Monomac 6 cells, 2 h. On the procedure: The activity of compounds of this invention in inhibiting the TNF release was determined, using the a minor modification of the method described in Pradines-Figueres, A. and Raetz, C. R. H., J. Biol. Chem., 267 (32), 23261, (1992).
Human Monomac 6 cells (Ziegler-Heitbrock, H. W. L., et al., Int. J. Cancer, 41, 456, (1988)) were cultured at 37° C. in RPMI 1640 medium containing 10% fetal calf serum to a density of 1×10^5 cells/ml. 0.23 ml of these cells were placed in each well of a tissue culture plate and the cells were incubated for 15 min. The test compounds were dissolved in above mentioned medium and added and the incubation was continued for an additional 15 min. 10 μl of an lipopolysaccharide/phorbol-12-myristate-13-acetate (LPS/PMA) mixture was added such that the final concentration of lipopolysaccharide was 10 ng/ml and the final concentration of phorbol-12-myristate-13-acetate was 30 ng/ml. The cells were incubated for 2 h after which the plate was centrifuged and the medium was removed and analyzed for TNF content. The analysis was performed using a TNF Quantikine® Immunoassay (R & D Systems, Minneapolis, Minn. 55413) by following the manufacturer's protocol.

On to `CC(C)[C@H](C(=O)NO)N(Cc1ccccc1)S(=O)(=O)N1CCCCC1` [compound 1, N-hydroxy-2-(R)-[benzyl-(piperdine-1-sulfonyl)amino]-3-methybutyramide], for which the melting point (in general, the temperature, or range, at which the solid turns liquid) fell in the range of 80.6 to 85.7 °C. In data set [1], the IC50 – broadly, the concentration that gives 50% inhibition – turned out to be 550 nM. For the same compound, in data set [2], the concentration for half-maximal inhibition (IC50) is 660 nM.

As for `CC(C)[C@@H](NS(=O)(=O)N1CCN(c2ccc(Cl)cn2)CC1)C(=O)NO` [compound 50, N-hydroxy-2-(R)-{[4-(5-chloropyridin-2yl)piperazine-1-sulfonyl]amino}-3-methylbutyramide], the melting point was in the range of 146.7 to 147 °C. Besides, the IC50 in data set [1] is 220 nM. The IC50 in data set [2] worked out at 1.3 nM.

For the compound `CC(C)[C@@H](NS(=O)(=O)N1CCN(c2ccc(Cl)cc2)CC1)C(=O)NO` [compound 51, N-hydroxy-2-(R)-{[4-(4-chlorophenyl)piperazine-1-sulfonyl]amino}-3-methylbutyramide], the melting point fell in the range of 154.1 to 154.8 °C. Further, the concentration for half-maximal inhibition (IC50) in data set [1] amounted to 490 nM. Besides, in data set [2], the IC50 was determined as 2.6 nM.

The compound `CC(C)[C@@H](NS(=O)(=O)N1CCC(Oc2ccc(Cl)cc2)CC1)C(=O)NO` [compound 59, N-hydroxy-2-(R)-{[4-(4-chlorophenoxy)piperidine-1-sulfonyl]amino}-3-methylbutyramide] returned a melting point of 139.2 to 139.6 °C. In addition, in data set [1], the IC50 was 110 nM. For the same compound, the “% protection” value in data set [3] is 54%. The “% protection” value in data set [4] was 58%. The IC50 in data set [2] is 0.18 nM.

The compound `CC(C)[C@@H](NS(=O)(=O)N1CCN(c2ccc(OCc3ccccc3)cc2)CC1)C(=O)NO` [compound 74, N-hydroxy-2-(R)-{[4-(4-benzyloxyphenyl)piperazine-1-sulfonyl]amino}-3-methylbutyramide] registered a melting point of 149 to 156 °C. In data set [1], the IC50 stood at 7600 nM. Besides, the IC50 in data set [2] turned out to be 0.73 nM.

For the compound `CC(C)[C@@H](NS(=O)(=O)N1CCC(Oc2ccc(Cl)cn2)CC1)C(=O)NO` [compound 100, N-hydroxy-2-(R)-{[4-(5-chloropyridin-2-yloxy)piperidine-1-sulfonyl]amino}-3-methylbutyramide], the melting point was in the range of 97 to 98.4 °C. Besides, the “% protection” value in data set [3] came to 68%. The “% protection” value in data set [4] came to 40%.

Consider `O=C(NO)[C@H](CSCc1ccccc1)NS(=O)(=O)N1CCN(c2ccc(Cl)cn2)CC1` [compound 102], for which the melting point was 86 to 86.7 °C. In data set [1], the IC50 came to 338 nM. For the same compound, the IC50 in data set [2] is 0.92 nM.

The compound `CC(C)[C@@H](NS(=O)(=O)N1CCC(c2nc(-c3ccccc3)c[nH]2)CC1)C(=O)NO` [compound 133] had a melting point of 141 to 142.3 °C. Also, in data set [1], the IC50 is 20000 nM. Moreover, in data set [2], the IC50 is 18 nM.

As for `CC(C)[C@@H](NS(=O)(=O)N1CCC(Oc2ccc(F)cc2)CC1)C(=O)NO` [compound 179], the melting point is 74.3 to 75.3 °C. Further, the IC50 in data set [1] was 23 nM. Besides, in data set [2], the IC50 is 0.073 nM.

On to `O=C(c1ccc(Cl)cc1)C1CCN(S(=O)(=O)N2CCCC[C@@H]2C(=O)NO)CC1` [compound 242], for which the melting point was in the range of 84.4 to 86.4 °C. In addition, in data set [1], the IC50 was determined as 67 nM. In addition, the IC50 in data set [2] was 0.063 nM.

In turn, `CN(C)C(=O)N1CCN(S(=O)(=O)N2CCC(c3c[nH]c4c(F)c(F)c(F)c(F)c34)CC2)[C@@H](C(=O)NO)C1` [compound 309] returned a melting point of 181 to 184 °C. The IC50 in data set [1] was above 50000 nM. Moreover, the IC50 in data set [2] was found to be 500 nM.

With `O=C(NO)C1(NS(=O)(=O)N2CCN(c3ccc(Cl)cc3)CC2)CCCCC1` [compound 345, N-hydroxy-1-{[4-(4-chlorophenyl)piperazine-1-sulfonyl]amino}-cyclohexane-1-carboxamide], the melting point fell in the range of 146.1 to 146.6 °C. The IC50 in data set [1] was determined as 530 nM. Also, in data set [2], the IC50 is 6.6 nM.

Compound `C[C@@H](NS(=O)(=O)N1CC=C(c2ccc(Cl)cc2)CC1)C(=O)NO` [compound 401] gave a melting point of 90.7 to 93 °C. For the same compound, the IC50 in data set [1] was 250 nM. Moreover, the 50% inhibitory concentration (IC50) in data set [2] stood at 0.19 nM.

For “N-hydroxy-1-[4-(4,5,6,7-tetrafluoroindol-3-yl)piperazine-1-sulfonyl]piperidine-2-(RS)-carboxamide [compound 299]”, the % inhibition (usually the share of the control response that was lost under treatment) in data set [5] worked out at 52%; in data set [6], 90%. Moreover, the IC50 in data set [1] is above 50000 nM; in data set [2], 410 nM.

Regarding “N-hydroxy-4-(morpholine-4-ylcarbonyl)piperazine-1-sulfonyl]-4-(S)-hydroxypiperidine-2-(R)-carboxamide [compound 321]”, the entries for the “% inhibition” value in data set [5] and in data set [6] were 50% and 93%, respectively.

Values taken from patent US6376506B1, “Sulfamide-metalloprotease inhibitors” (Syntex (U.S.A.) LLC, priority 1997, dated 2002).
